# Assay results from PMC8225008, “Development of Non-Ethoxypropanoic Acid Type Cryptochrome Inhibitors with Circadian Molecular Clock-Enhancing Activity by Bioisosteric Replacement” (Pharmaceuticals, 2021).
# Assays:
# [1] = In vivo pharmacokinetics in rats after IV or PO administration; parameters: species or system Sprague Dawley (SD) male rats; conditions: male, Sprague Dawley, rat, oral 5 mg/kg, measured as 2d form in plasma
# Method: For in vivo pharmacokinetic studies, Sprague Dawley (SD) male rats (weighing 270–280 g) were purchased from Orient Bio Inc. (Seongnam, Korea). Experimental protocols involving animal use were carefully reviewed and approved by the Institutional Animal Care and Use Committee at Gachon University. Prior to studies, animals fasted for 18 h, but with free access to water. Compound 5d or 2d was dissolved in a dosing vehicle consisting of PEG400, normal saline, and dimethylsulfoxide in a ratio of 6:3:1 (v/v/v%) to make a 2 mg/mL dosing solution. […]
# To determine drug concentration levels in plasma, the Agilent 1290 UHPLC-DAD system with Polar RP column (3 μm, 150 mm × 2 mm ID., Phenomenex) was used for chromatographic separations. […] The total run time was 4.4 min for samples which were monitored at 260 nm. […]
# (§1) The EC50 values for luciferase reporter assay were calculated based on a logistic four-parametric equation using the mean values of intrinsic activation (SigmaPlot 10.0; Systat Software Inc., San Jose, CA, USA). The IC50 and t1/2 values for the cytochrome P450 inhibition assay and metabolic stability test were calculated by WinNonlin software (Pharsight, Mountain View, CA, USA). Pharmacokinetic parameters were calculated using non-compartmental analysis (WinNonlin v.8.3; Pharsight, Mountain View, CA, USA). […]
# CYP3A = assay: Cytochrome P450 inhibition assay (cocktail method, human liver microsomes), midazolam 1'-hydroxylation; type: in vitro ADME; conditions: pooled human liver microsomes, probe midazolam (5 μM)
# Method: The inhibitory effects of KS15 and compound 5d on the metabolism of five cytochrome P450 (P450) probe substrates were evaluated using previous methods with slight modifications. The following P450 probe substrates were used: phenacetin (100 μM) for CYP1A2, tolbutamide (100 μM) for CYP2C9, omeprazole (20 μM) for CYP2C19, dextromethorphan (5 μM) for CYP2D6, and midazolam (5 μM) for CYP3A. Incubation mixtures containing pooled human liver microsomes (HLMs, XTreme 200, XenoTech, Lenexa, KS, USA), P450 probe substrates, and KS15 or compound 5d (final concentrations: 0, 0.5, 2, 5, 20, and 50 μM) were preincubated for 5 min at 37 °C. […] After centrifugation at 18,000× g (5 min, 4 °C), supernatant aliquots were analyzed by liquid chromatography-tandem mass spectrometry (LC-MS/MS). […]
# All metabolites and IS were separated on a Kinetex C18 column (100 mm × 2.1 mm, 2.6 μm ID., Phenomenex, Torrance, CA, USA) and analyzed using an LC-MS/MS system (LCMS 8060, Shimadzu, Tokyo, Japan) equipped with an electrospray ionization (ESI) interface. […]
# as §1, with “The IC50 and t1/2 values for the cytochrome P450 inhibition assay and metabolic stability test were calculated by WinNonlin software (Pharsight, Mountain View, CA, USA).” left out
half-life [1] [h],AUC ([1]; read-out: AUCinfinite (converted)) [µg·h/mL],IC50 at 10 min (CYP3A) [µM],SMILES
6.52 ± 0.793,184,–,"CC(=NOCc1ccc([N+](=O)[O-])cc1)c1cccc(OCC(=O)O)c1 [Compound 2d, 2-(3-(1-(((4-nitrobenzyl)oxy)imino)ethyl)phenoxy)acetic acid]"
–,–,> 50,"COC(=O)COc1cccc(C(C)=NOCc2ccc([N+](=O)[O-])cc2)c1 [Compound 5d, Methyl 2-(3-(1-(((4-nitrobenzyl)oxy)imino)ethyl)phenoxy)acetate]"
